≈ marks a conversion by molar mass, not a printed value. Calls of active or inactive are those of the source. No cut-off for these calls is given here. Bounds are passed on as bounds.

The nature of data set [1]: Cytotoxicity against human HepG2 cells assessed as inhibition of cell growth at 20 uM measured after 48 hrs by MTT assay relative to control. The format is toxicity, cell-based. (In general: Formazan colour is commonly taken as a measure of viable cells.)
Data set [2] has as its target T1, Glutamate 5-kinase (Escherichia coli) (UniProt P0A7B5).
T1 sequence (whole entry): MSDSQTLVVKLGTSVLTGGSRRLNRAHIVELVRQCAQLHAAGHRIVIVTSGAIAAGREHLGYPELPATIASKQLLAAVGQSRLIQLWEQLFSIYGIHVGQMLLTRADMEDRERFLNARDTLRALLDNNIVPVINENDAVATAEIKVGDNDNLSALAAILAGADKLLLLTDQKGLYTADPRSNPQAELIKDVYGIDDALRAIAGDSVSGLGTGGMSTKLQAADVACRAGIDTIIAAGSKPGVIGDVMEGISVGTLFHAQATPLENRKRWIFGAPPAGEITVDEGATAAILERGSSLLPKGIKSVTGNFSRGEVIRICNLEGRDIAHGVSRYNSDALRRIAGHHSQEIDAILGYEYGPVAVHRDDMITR
The data set is described as follows: Allosteric inhibition of Escherichia coli G5K using 10 mM L-Glu and 10 mM ATP as substate by NADH-coupled assay. The note with it: filed as negative allosteric modulator.

Data set [3] can be described thus: Cytotoxicity against human HepG2 cells assessed as inhibition of cell growth at 10 uM measured after 48 hrs by MTT assay relative to control. The format is toxicity, cell-based.
Data set [4] addresses T1, Glutamate 5-kinase (Escherichia coli). In words: Allosteric inhibition of Escherichia coli G5K using 150 mM L-Glu and 10 mM ATP as substate by NADH-coupled assay relative to control. The note with it: filed as negative allosteric modulator.
Data set [5] concerns Mycobacterium tuberculosis. The data set is described as follows: Antitubercular activity against Mycobacterium tuberculosis H37Rv assessed as inhibition of bacterial growth measured after 8 days by Alamar blue assay. The format is functional. The note with it: 192 h, time 8 day. In general terms: The colour change of resazurin is a common sign of viable cells or microbes.
The target in data set [6] is T1, Glutamate 5-kinase (Escherichia coli). In words: Allosteric inhibition of Escherichia coli G5K assessed as decrease in apparent Vmax for ATP using L-Glu and ATP as substate at 120 uM by NADH-coupled assay. The note with it: filed as negative allosteric modulator.
Data set [7] in a line: Cytotoxicity against human HepG2 cells assessed as inhibition of cell growth at 5 uM measured after 48 hrs by MTT assay relative to control. It is filed as toxicity, cell-based.
In the next data set the target is Acetylcholinesterase (Electrophorus electricus, UniProt O42275). The data set is described as follows: Inhibition of electric eel AChE using acetylthiocholine iodide as substrate by spectrophotometric analysis.
Data set [8] has as its system Mycobacterium tuberculosis. In words: Antitubercular activity against Mycobacterium tuberculosis H37Rv assessed as inhibition of bacterial growth. It is filed as functional.
The subject of data set [9] is Plasmodium falciparum. The data set is described as follows: Antiplasmodial activity against chloroquine-resistant Plasmodium falciparum Dd2. It is filed as functional, organism-based.
Data set [10] concerns Plasmodium falciparum. The data set is described as follows: Antiplasmodial activity against chloroquine-sensitive Plasmodium falciparum 3D7. The format is functional, organism-based.
The target of data set [11] is T1, Glutamate 5-kinase (Escherichia coli). The data set is described as follows: Allosteric inhibition of Escherichia coli G5K assessed as enzyme residual activity using 150 mM L-Glu and 2.2 to 8.4 mM ATP as substate by NADH-coupled assay relative to control.
For data set [12] the target is unchanged. The data set is described as follows: Allosteric inhibition of Escherichia coli G5K assessed as increase in apparent Km for ATP using L-Glu and ATP as substate at 120 uM by NADH-coupled assay. The note with it: filed as negative allosteric modulator.
For data set [13] the target is unchanged. The data set is described as follows: Allosteric inhibition of Escherichia coli G5K assessed as enzyme residual activity using 150 mM L-Glu and 10 mM ATP as substate by NADH-coupled assay relative to control.

Chain of Acetylcholinesterase (O42275 whole entry): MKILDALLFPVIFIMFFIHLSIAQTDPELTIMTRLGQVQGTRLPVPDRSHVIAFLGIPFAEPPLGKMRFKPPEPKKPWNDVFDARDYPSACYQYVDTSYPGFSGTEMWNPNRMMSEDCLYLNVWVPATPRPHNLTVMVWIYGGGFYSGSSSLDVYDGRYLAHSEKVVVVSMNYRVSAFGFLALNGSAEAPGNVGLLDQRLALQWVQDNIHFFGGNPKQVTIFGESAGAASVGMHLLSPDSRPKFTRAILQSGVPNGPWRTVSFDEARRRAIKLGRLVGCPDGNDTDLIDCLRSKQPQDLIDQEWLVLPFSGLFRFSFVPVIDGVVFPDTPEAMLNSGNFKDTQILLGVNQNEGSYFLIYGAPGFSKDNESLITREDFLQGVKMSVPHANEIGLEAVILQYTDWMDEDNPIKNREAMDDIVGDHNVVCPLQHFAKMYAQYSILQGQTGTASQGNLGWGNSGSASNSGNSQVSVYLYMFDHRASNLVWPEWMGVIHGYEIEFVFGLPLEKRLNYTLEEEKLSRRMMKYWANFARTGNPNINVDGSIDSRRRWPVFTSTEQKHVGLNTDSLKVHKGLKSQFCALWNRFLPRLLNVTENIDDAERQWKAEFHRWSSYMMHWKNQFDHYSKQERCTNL

With `Fc1ccc2c(c1)nc(-c1ccc(Cl)cc1)c1[nH]ccc12`, in data set [1], the inhibition (commonly the relative decrease from the control value, in per cent) at 48 h, 20 µM is 2%. Moreover, the I0.5 in data set [2] is 33 µM. Besides, the inhibition at 48 h, 10 µM in [3] worked out at 1%. The inhibition in data set [4] is 40%. In addition, in data set [5], the MIC (in general, the lowest concentration that inhibits growth of the organism) stood at 4.2 µM (≈ 1.25 µg/mL). The inhibition entry in data set [6] was “Active”. Further, the inhibition at 48 h, 5 µM in data set [7] is 1%.

Regarding `CCCCCCCCc1nc2cc(C)ccc2c2cc[nH]c12`, the MIC in [5] was 17 µM (≈ 5.01 µg/mL).

For the compound `COc1c(N2C[C@@H]3CCCN[C@@H]3C2)c(F)cc2c(=O)c(C(=O)O)cn(C3CC3)c12` [MOXIFLOXACIN], the MIC in [5] was found to be 0.15 µM (≈ 0.0602 µg/mL).

With `Clc1ccc(-c2nc3cc(Cl)ccc3c3cc[nH]c23)cc1`, in data set [5], the MIC is 16 µM (≈ 5.01 µg/mL).

Take `c1ccc2c(c1)nc(-c1c[nH]c3ccccc13)c1[nH]ccc12` [MARINOQUINOLINE E]: inhibition at Acetylcholinesterase was half-maximal at 3.6 µM (IC50).

Take `c1ccc2c(c1)nc(-c1ccc(N3CCCC3)cc1)c1c3ncccc3[nH]c21`: in data set [8], the MIC amounted to 13.7 µM (≈ 4.99 µg/mL).

`CCCCCCCCc1nc2cc(F)ccc2c2cc[nH]c12`: the MIC in [5] worked out at 16.8 µM (≈ 5.01 µg/mL).

Regarding `c1ccc(Cc2nc3ccccc3c3cc[nH]c23)cc1` [MARINOQUINOLINE C], half-maximal inhibition on Acetylcholinesterase (IC50) required 3.6 µM.

On to `CCCCCCCCc1nc2ccccc2c2cc[nH]c12`, for which the MIC in data set [5] turned out to be 17.8 µM (≈ 4.99 µg/mL).

Take `Oc1ccc(Cc2nc3ccccc3c3cc[nH]c23)cc1` [MARINOQUINOLINE D]: 3.6 µM corresponded to half-maximal inhibition against Acetylcholinesterase (IC50).

For the compound `Fc1ccc2c(c1)nc(-c1ccc(Cl)cc1)c1c2ccn1CC1CC1`, the MIC in data set [5] was 14.2 µM (≈ 4.98 µg/mL).

With `FC(F)(F)c1ccc2c(c1)nc(-c1ccc(Cl)cc1)c1[nH]ccc12`, the MIC in data set [5] stood at 14.4 µM (≈ 4.99 µg/mL).

Turning to `Cc1ccc2c(c1)nc(C1CC1)c1[nH]ccc12`, the MIC in [5] is 45 µM (≈ 10 µg/mL).

Regarding `COc1ccc2c(c1)nc(Cc1ccccc1)c1[nH]ccc12`, the MIC in data set [5] is 34.7 µM (≈ 10 µg/mL).

With `Cc1ccc2c(c1)nc(-c1ccc(Cl)cc1)c1c2ccn1C`, the MIC in data set [5] came out at 16.3 µM (≈ 5 µg/mL).

As for `O=C(O)[C@@H]1CCCN1`, in [2], the I0.5 amounted to 2.5 µM. The compound further yielded an inhibition in data set [4] of 100%.

For the compound `Nc1ncnc2c1ncn2Cc1nc2ccccc2c2cc[nH]c12`, the IC50 (commonly the concentration needed to halve the response being measured) came out at 1.65 µM with Plasmodium falciparum [9] and 1.47 µM with Plasmodium falciparum [10].

In the case of `O=C(c1c[nH]c2ccccc12)c1nc2ccccc2c2cc[nH]c12` [MARINOQUINOLINE F], on Acetylcholinesterase, half-maximal inhibition (IC50) was put at 3.6 µM.

As to `Cc1nc2ccccc2c2cc[nH]c12` [MARINOQUINOLINE A], the IC50 at Acetylcholinesterase amounted to 3.6 µM.

As for `CC(C)(C)OC(=O)Nc1ccc(-c2nc3ccccc3c3[nH]c4ccccc4c23)cc1`, in data set [8], the MIC is 6.1 µM (≈ 2.5 µg/mL).

In the case of `Clc1ccc(-c2nc3ccccc3c3cc[nH]c23)cc1`, the MIC in data set [5] was found to be 17.9 µM (≈ 4.99 µg/mL).

As to `CC(C)Cc1nc2ccccc2c2cc[nH]c12`, on Acetylcholinesterase, inhibition was half-maximal at 3.6 µM (IC50). The MIC in data set [5] is 22.6 µM (≈ 5.07 µg/mL).

In the case of `Cc1ccc2c(c1)nc(-c1ccc(Cl)cc1)c1[nH]ccc12`, the MIC in data set [5] was 8.5 µM (≈ 2.49 µg/mL).

Turning to `Clc1ccc(-c2nc3ccccc3c3c(Cl)c[nH]c23)cc1`, the MIC in data set [5] came to 16 µM (≈ 5.01 µg/mL).

On to `COc1ccc2c(c1)nc(CCc1ccccc1)c1c2ccn1C`, for which the MIC in data set [5] stood at 7.9 µM (≈ 2.5 µg/mL).

Take `Cn1ccc2c3ccccc3nc(-c3ccc(Cl)cc3)c21`: in [5], the MIC was 17.1 µM (≈ 5.01 µg/mL).

Take `c1ccc(-c2ccc(-c3nc4ccccc4c4cc[nH]c34)cc2)cc1`: the MIC in data set [5] worked out at 31.2 µM (≈ 10 µg/mL).

In the case of `c1ccc(CCc2nc3ccccc3c3cc[nH]c23)cc1`, the MIC in data set [5] was determined as 36.7 µM (≈ 10 µg/mL).

Consider `COc1ccc2c(c1)nc(CCc1ccccc1)c1[nH]ccc12`, for which the inhibition at 48 h, 20 µM in data set [1] came out at 17%. The I0.5 in [2] was determined as 22.1 µM. Moreover, in data set [3], the inhibition at 48 h, 10 µM is 3%. The MIC in [5] came out at 4.1 µM (≈ 1.24 µg/mL). Besides, the Activity in data set [11] amounted to 66%; in [13], 68%. Besides, the inhibition at 48 h, 5 µM in data set [7] was found to be 1%. In data set [12], the inhibition result is “Active”.

As for `Fc1ccc2c(c1)nc(CCc1ccccc1)c1[nH]ccc12`, in data set [5], the MIC was found to be 34.4 µM (≈ 9.99 µg/mL).

Regarding `Clc1ccc(-c2nc3ccccc3c3c(Br)c[nH]c23)cc1`, in data set [5], the MIC turned out to be 14 µM (≈ 5.01 µg/mL).

`COC(=O)c1ccc2c(c1)nc(-c1ccc(Cl)cc1)c1[nH]ccc12`: the minimum inhibitory concentration (MIC) in [5] was over 500 µM.

As for `CCCCCCCCc1nc2cc(OC)ccc2c2cc[nH]c12`, the MIC in data set [5] was 16.1 µM (≈ 5 µg/mL).

In the case of `c1ccc2c(c1)nc(C1CC1)c1[nH]ccc12`, in data set [5], the MIC was 24 µM (≈ 5 µg/mL).

With `Fc1cccc(-c2c[nH]c3c(-c4ccc(Cl)cc4)nc4ccccc4c23)c1`, the MIC in data set [5] came out at 26.8 µM (≈ 9.99 µg/mL).

The record behind these values is ChEMBL document CHEMBL5154763, “Discovery of 3H-pyrrolo[2,3-c]quinolines with activity against Mycobacterium tuberculosis by allosteric inhibition of the glutamate-5-kinase enzyme” (Eur J Med Chem, 2022).
